Patent publication US20200163984A1, “USE OF ISOVALERYL SPIRAMYCIN I, II AND/OR III IN MANUFACTURING MEDICAMENT FOR TREATING AND/OR PREVENTING TUMOR, AND MEDICAMENT” (SHENYANG FUYANG PHARMACEUTICAL TECHNOLOGY CO., LTD., priority 2017, published 2020)
≈ marks a conversion by molar mass, not a printed value. Like-named read-outs stand apart in the source and are kept apart here. Blank lines part the entries; values can stand above or below the molecule they belong to.

Experiments:
[1] = system: transplanted tumor of human non-small cell lung cancer cell H1299
Protocol: (§1) Then cell concentration was adjusted to 1×10^7/ml with matrigel, then each nude mouse was inoculated subcutaneously with 0.2 ml of cells at its right armpit and recorded as the first day of inoculation. When the tumor grows to be greater than or equal to 100 mm^3, the mice were randomly divided into 11 groups with 6 mice in each group: isovaleryl spiramycin I groups with doses of 25, 50 and 100 mg/kg, isovaleryl spiramycin II groups with doses of 25, 50 and 100 mg/kg, and isovaleryl spiramycin III groups with doses of 25, 50 and 100 mg/kg. Each group was continuously administered intragastrically for 30 days with a dose of 20 ml/kg. The mice were sacrificed the next day after drug withdrawal and the indicators were tested. The long diameter and short diameter of the tumor, and the body weight of each mouse were recorded every 3 days from drug administration to nude mouse sacrifice.
(§2) The body weight of the nude mice and the long diameter (a) and short diameter (b) of the transplanted tumor were measured every 3 days, and the tumor volume (v), relative tumor volume (RTV) and relative tumor proliferation rate (T/C) are calculated respectively according to the following formulas, wherein V=a×b^2/2; RTV=V/V0 (V0 is the tumor volume before administration, V is the tumor volume before sacrifice), and T/C (%)=treatment group RTV/model control group RTV×100%.
(§3) Each mouse was weighed and sacrificed. After the tumor was completely stripped off from the body of the mouse, the non-tumor tissues such as blood stains and fat were removed to weigh the tumor and calculate the tumor growth inhibition rate. The average tumor weight of each group of mice is used as an indicator of efficacy. Tumor growth inhibition rate (%)=(1−the average tumor weight of the treatment group/the average tumor weight of the model group)×100%.

[2] = system: transplanted tumor of human breast cancer cell MCF-7; test: MCF-7 transplanted tumor in nude mice
Protocol: as §1, with “group: a model group, a cyclophosphamide group,” for “group:”
as §2, §3

[3] = system: transplanted tumor of human bladder cancer cell T-24; test: T-24 transplanted tumor in nude mice
Protocol: as §1, §2, §3

[4] = system: human bladder cancer cell T-24; conditions: T-24, MTT
Description: (§4) The purpose of the assay is to evaluate the in vitro cell proliferation inhibition or cytotoxic activity of a tested sample.
(§5) Human breast cancer cells MCF-7 and MDA-MB-231, human hepatoma cells HepG2, human non-small cell lung cancer cells A549, human large cell lung cancer cells H460 and H1299, human renal clear cell adenocarcinoma cell 786-0, human renal cell adenocarcinoma cell 769-P, human glioma cell U251, human glioblastoma cell A172, human tissue lymphoma cell U937, human cervical cancer cell HeLa, human prostate cancer cell PC3, human pancreatic cancer cell PANC-1, human esophageal cancer cell TE-1, human gastric adenocarcinoma cell SGC7901, human colon cancer cell HT-29, human promyelocytic leukemia cell HL-60, human thyroid cancer cell TPC-1, and human bladder cancer cell T-24.
(§6) The inhibition rate of the medicament on tumor cell growth is calculated according to the following formula:
(§7) Tumor cell growth inhibition rate (%)=[A492 (negative control)−A492 (dosing group)]/A492 (negative control)×100%
(§8) And the half-inhibitory concentration (IC50) of the sample is determined therefrom.

[5] = system: human thyroid cancer cell TPC-1; conditions: TPC-1, MTT
Description: as §4, §5, §6, §7, §8

[6] = H1299, 25 mg/kg (low dose) i.g. 30 days
[7] = H1299, 50 mg/kg (medium dose) i.g. 30 days
[8] = H1299, 100 mg/kg (high dose) i.g. 30 days
[9] = MCF-7, 25 mg/kg (low dose) i.g. 30 days
[10] = MCF-7, 50 mg/kg (medium dose) i.g. 30 days
[11] = MCF-7, 100 mg/kg (high dose) i.g. 30 days
[12] = T-24, high dose (100 mg/kg in method) i.g. 30 days
[13] = T-24, low dose (25 mg/kg in method) i.g. 30 days
[14] = T-24, medium dose (50 mg/kg in method) i.g. 30 days

SMILES: O=P1(N(CCCl)CCCl)NCCCO1 (centres unmarked) [Cyclophosphamide, cyclophosphamide, reference compound]
Body Weight (d 1) ([1]; H1299, 30 mg/kg i.g. 30 days): 21.83 ± 0.33 g
Body Weight (d 30) ([1]; H1299, 30 mg/kg i.g. 30 days): 23.72 ± 2.41 g
Inhibition Rate (tumor growth inhibition rate) ([1]; H1299, 30 mg/kg i.g. 30 days): 78.00%
Relative Tumor Proliferation Rate (T/C) ([1]; H1299, 30 mg/kg i.g. 30 days): 22.72%
Relative Tumor Volume (RTV) ([1]; H1299, 30 mg/kg i.g. 30 days): 2.91 ± 0.95
Tumor Volume (d 1) ([1]; H1299, 30 mg/kg i.g. 30 days): 135.46 ± 16.48 mm3
Tumor Volume (d 30) ([1]; H1299, 30 mg/kg i.g. 30 days): 384.21 ± 106.99 mm3
Tumor Weight ([1]; H1299, 30 mg/kg i.g. 30 days): 0.38 ± 0.08 g
Body Weight (d 1) ([2]; MCF-7, 30 mg/kg i.g. 30 days): 22.03 ± 0.70 g
Body Weight (d 30) ([2]; MCF-7, 30 mg/kg i.g. 30 days): 17.77 ± 0.65 g
Inhibition Rate (tumor growth inhibition rate) ([2]; MCF-7, 30 mg/kg i.g. 30 days): 70.18%
Relative Tumor Proliferation Rate (T/C) ([2]; MCF-7, 30 mg/kg i.g. 30 days): 29.56%
Relative Tumor Volume (RTV) ([2]; MCF-7, 30 mg/kg i.g. 30 days): 5.17 ± 0.64
Tumor Volume (d 1) ([2]; MCF-7, 30 mg/kg i.g. 30 days): 103.78 ± 12.65 mm3
Tumor Volume (d 30) ([2]; MCF-7, 30 mg/kg i.g. 30 days): 532.62 ± 56.27 mm3
Tumor Weight ([2]; MCF-7, 30 mg/kg i.g. 30 days): 0.81 ± 0.25*8 g
Inhibition Rate (%) ([3]; dose 30 mg/kg): 73.04%
Relative Tumor Proliferation Rate (T/C) ([3]; dose 30 mg/kg): 21.60%
Relative Tumor Volume (RTV) ([3]; dose 30 mg/kg): 2.85 ± 0.50
Tumor Weight ([3]; dose 30 mg/kg): 0.51 ± 0.12 g
Body Weight (g) (d1) ([3]; dose 30 mg/kg, d 1): 19.53 ± 0.61 g
Tumor Volume (mm3) (d 1) ([3]; dose 30 mg/kg, d 1): 136.87 ± 19.82 mm3
Body Weight (g) (d30) ([3]; dose 30 mg/kg, d 30): 27.28 ± 1.43 g
Tumor Volume (mm3) (d30) ([3]; dose 30 mg/kg, d 30): 389.34 ± 82.07 mm3

IC50 [4]: 18.68 ± 0.58 µg/mL (≈ 20.1 µM)
IC50 [5]: 19.97 ± 1.93 µg/mL (≈ 21.5 µM)
mouse weight compared with the model group ([1]; mouse, in vivo): no significant changes
mouse weight compared with the model group ([2]; mouse, in vivo): no significant changes
mouse weight compared with the model group ([3]; mouse, in vivo): no significant changes
SMILES: CO[C@@H]1[C@@H](O[C@@H]2O[C@H](C)[C@@H](O[C@H]3C[C@@](C)(O)[C@@H](OC(=O)CC(C)C)[C@H](C)O3)[C@H](N(C)C)[C@H]2O)[C@@H](CC=O)C[C@@H](C)[C@@H](O[C@H]2CC[C@H](N(C)C)[C@@H](C)O2)/C=C/C=C/C[C@@H](C)OC(=O)C[C@H]1O [Isovaleryl spiramycin I, isovaleryl spiramycin I]
Inhibition Rate (tumor growth inhibition rate) [1, 6]: 22.11%
Relative Tumor Proliferation Rate (T/C) [1, 6]: 89.42%
Relative Tumor Volume (RTV) [1, 6]: 11.46 ± 3.83
Tumor Volume (d 1) [1, 6]: 136.07 ± 17.13 mm3
Tumor Volume (d 30) [1, 6]: 1513.14 ± 387.19 mm3
Tumor Weight [1, 6]: 1.36 ± 0.33 g
Inhibition Rate (tumor growth inhibition rate) [1, 7]: 43.83%
Relative Tumor Proliferation Rate (T/C) [1, 7]: 49.81%
Relative Tumor Volume (RTV) [1, 7]: 6.39 ± 1.01
Tumor Volume (d 1) [1, 7]: 135.51 ± 20.47 mm3
Tumor Volume (d 30) [1, 7]: 861.71 ± 164.32 mm3
Tumor Weight [1, 7]: 0.98 ± 0.27 g
Inhibition Rate (tumor growth inhibition rate) [1, 8]: 69.95%
Relative Tumor Proliferation Rate (T/C) [1, 8]: 27.43%
Relative Tumor Volume (RTV) [1, 8]: 3.52 ± 0.68
Tumor Volume (d 1) [1, 8]: 137.34 ± 22.95 mm3
Tumor Volume (d 30) [1, 8]: 470.36 ± 21.77 mm3
Tumor Weight [1, 8]: 0.52 ± 0.21 g
tumor volume and relative tumor volume compared with the model group ([1]; H1299, low, medium and high doses, P<0.05): significantly lower
Inhibition Rate (tumor growth inhibition rate) [2, 9]: 31.10%
Relative Tumor Proliferation Rate (T/C) [2, 9]: 71.92%
Relative Tumor Volume (RTV) [2, 9]: 12.59 ± 7.49
Tumor Volume (d 1) [2, 9]: 139.97 ± 26.58 mm3
Tumor Volume (d 30) [2, 9]: 1634.85 ± 789.61 mm3
Tumor Weight [2, 9]: 1.87 ± 0.25 g
Inhibition Rate (tumor growth inhibition rate) [2, 10]: 51.72%
Relative Tumor Proliferation Rate (T/C) [2, 10]: 49.05%
Relative Tumor Volume (RTV) [2, 10]: 8.58 ± 4.41
Tumor Volume (d 1) [2, 10]: 146.57 ± 32.97 mm3
Tumor Volume (d 30) [2, 10]: 1162.80 ± 394.71 mm3
Tumor Weight [2, 10]: 1.31 ± 0.50 g
Inhibition Rate (tumor growth inhibition rate) [2, 11]: 70.12%
Relative Tumor Proliferation Rate (T/C) [2, 11]: 30.80%
Relative Tumor Volume (RTV) [2, 11]: 5.39 ± 0.97
Tumor Volume (d 1) [2, 11]: 124.02 ± 15.14 mm3
Tumor Volume (d 30) [2, 11]: 656.95 ± 49.58 mm3
Tumor Weight [2, 11]: 0.81 ± 0.08 g
tumor volume and relative tumor volume compared with the model group ([2]; MCF-7, low, medium and high doses, P<0.05): significantly lower
Relative Tumor Proliferation Rate (T/C) [3, 12]: 33.95%
tumor growth inhibition rate [3, 12]: 65.84%
Relative Tumor Proliferation Rate (T/C) [3, 13]: 77.78%
tumor growth inhibition rate [3, 13]: 20.55%
tumor volume and relative tumor volume compared with the model group ([3]; T-24, low, medium and high doses, P<0.05): significantly lower
Relative Tumor Proliferation Rate (T/C) [3, 14]: 58.92%
tumor growth inhibition rate [3, 14]: 49.20%
Inhibition Rate (%) ([3]; dose 25 mg/kg): 20.55%
Relative Tumor Proliferation Rate (T/C) ([3]; dose 25 mg/kg): 77.78%
Relative Tumor Volume (RTV) ([3]; dose 25 mg/kg): 10.28 ± 1.12
Tumor Weight ([3]; dose 25 mg/kg): 1.49 ± 0.23 g
Tumor Volume (mm3) (d 1) ([3]; dose 25 mg/kg, d 1): 139.84 ± 15.80 mm3
Tumor Volume (mm3) (d30) ([3]; dose 25 mg/kg, d 30): 1428.71 ± 156.12 mm3
Inhibition Rate (%) ([3]; dose 50 mg/kg): 49.20%
Relative Tumor Proliferation Rate (T/C) ([3]; dose 50 mg/kg): 58.92%
Relative Tumor Volume (RTV) ([3]; dose 50 mg/kg): 7.78 ± 1.27
Tumor Weight ([3]; dose 50 mg/kg): 0.95 ± 0.38 g
Tumor Volume (mm3) (d 1) ([3]; dose 50 mg/kg, d 1): 131.81 ± 7.15 mm3
Tumor Volume (mm3) (d30) ([3]; dose 50 mg/kg, d 30): 1025.16 ± 174.78 mm3
Inhibition Rate (%) ([3]; dose 100 mg/kg): 65.84%
Relative Tumor Proliferation Rate (T/C) ([3]; dose 100 mg/kg): 33.95%
Relative Tumor Volume (RTV) ([3]; dose 100 mg/kg): 4.48 ± 0.75
Tumor Weight ([3]; dose 100 mg/kg): 0.64 ± 0.18 g
Tumor Volume (mm3) (d 1) ([3]; dose 100 mg/kg, d 1): 134.21 ± 14.43 mm3
Tumor Volume (mm3) (d30) ([3]; dose 100 mg/kg, d 30): 606.16 ± 136.06 mm3
Body Weight (g) (d1) ([3]; mouse, in vivo, 25 mg/kg): 19.51 ± 0.58 g
Body Weight (g) (d30) ([3]; mouse, in vivo, 25 mg/kg): 23.89 ± 1.18 g
Body Weight (g) (d1) ([3]; mouse, in vivo, 50 mg/kg): 19.60 ± 0.70 g
Body Weight (g) (d30) ([3]; mouse, in vivo, 50 mg/kg): 25.41 ± 0.92 g
Body Weight (g) (d1) ([3]; mouse, in vivo, 100 mg/kg): 19.49 ± 0.54 g
Body Weight (g) (d30) ([3]; mouse, in vivo, 100 mg/kg): 24.6 ± 2.08 g
